Test results taken from paper PMC6071225 (Viruses, 2018).

What was measured:
S247N NA2009 [1] = type: biochemical, A/California/07/2009 (H1N1) influenza virus
I223V NA2009 [2] = type: binding, A/California/07/2009 (H1N1) influenza virus
S247N NA2009 [3] = type: binding, A/California/07/2009 (H1N1) influenza virus
[4] = system: H275Y/I223V 2009 pandemic H1N1 virus; details: cited from earlier work
H275Y NA2009 [5] = type: binding, A/California/07/2009 (H1N1) influenza virus
[6] = system: H275Y/S247N 2009 pandemic H1N1 virus; details: cited from earlier work
H275Y NA2009 [7] = type: biochemical, A/California/07/2009 (H1N1) influenza virus
H275Y/S247N NA2009 = type: biochemical, A/California/07/2009 (H1N1) influenza virus
I223V NA2009 [8] = type: biochemical, A/California/07/2009 (H1N1) influenza virus
[9] = system: NA with H275Y mutation, strain A/WSN/1933 (H1N1); details: cited from earlier work
H275Y/I223V NA2009 = type: biochemical, A/California/07/2009 (H1N1) influenza virus

SMILES: CCC(CC)O[C@@H]1C=C(C(=O)O)C[C@H](N)[C@H]1NC(C)=O [oseltamivir carboxylate]
- Fold Ki (S247N NA2009 [1]): 19 fold
- Ki (S247N NA2009 [1]): 0.45 ± 0.04 µM
- less favorable enthalpy change compared to wt (I223V NA2009 [2]): 1.4 kcal/mol
- more favorable entropic contribution compared to wt (I223V NA2009 [2]): 0.6 kcal/mol
- Kd (I223V NA2009 [2]; pH 6.15): 0.52 ± 0.03 µM
- ΔG (I223V NA2009 [2]; pH 6.15): -8.6 ± 0.1 kcal/mol
- ΔH (I223V NA2009 [2]; pH 6.15): -9.4 ± 0.1 kcal/mol
- −T·ΔS (I223V NA2009 [2]; pH 6.15): 0.9 ± 0.2 kcal/mol
- entropic contribution of binding compared to wt (S247N NA2009 [3]): almost unaffected
- less favorable enthalpy change compared to wt (S247N NA2009 [3]): 0.4 kcal/mol
- Kd (S247N NA2009 [3]; pH 6.15): 0.41 ± 0.02 µM
- ΔG (S247N NA2009 [3]; pH 6.15): -8.7 ± 0.03 kcal/mol
- ΔH (S247N NA2009 [3]; pH 6.15): -10.4 ± 0.1 kcal/mol
- −T·ΔS (S247N NA2009 [3]; pH 6.15): 1.7 ± 0.1 kcal/mol
- enhanced oseltamivir-resistant phenotype compared to the recombinant wt virus [4]: 1733 fold
- enthalpy change less favorable than the wt value (H275Y NA2009 [5]): 8.7 kcal/mol
- more favorable entropic contribution (referenced to the wt value) (H275Y NA2009 [5]): 6 kcal/mol
- Kd (H275Y NA2009 [5]; pH 6.15): 13.2 µM
- ΔG (H275Y NA2009 [5]; pH 6.15): -6.7 ± 0.03 kcal/mol
- ΔH (H275Y NA2009 [5]; pH 6.15): -2.1 ± 0.04 kcal/mol
- −T·ΔS (H275Y NA2009 [5]; pH 6.15): -4.6 ± 0.1 kcal/mol
- enhanced oseltamivir-resistant phenotype compared to the recombinant wt virus [6]: 7000 fold
- Ki (H275Y NA2009 [7]): 27 µM
- Fold Ki (H275Y/S247N NA2009): 9000 fold
- Ki (H275Y/S247N NA2009): 220 µM
- increase in Ki compared to the H275Y single mutant (H275Y/S247N NA2009): 8 fold
- increase in Ki compared to the S247N single mutant (H275Y/S247N NA2009): 500 fold
- Ki (I223V NA2009 [8]): 0.7 ± 0.1 µM
- reduction in susceptibility conferred by His to Tyr mutation at position 275 [9]: 750 fold
- Fold Ki (H275Y/I223V NA2009): 3900 fold
- Ki (H275Y/I223V NA2009): 94 µM
- increase in Ki compared to H275Y NA2009 (H275Y/I223V NA2009): more than three-fold

SMILES: CCC(CC)[C@H](NC(C)=O)[C@@H]1[C@H](O)[C@@H](C(=O)O)C[C@H]1N=C(N)N [peramivir]
- reduction in susceptibility conferred by His to Tyr mutation at position 275 [9]: 260 fold
